Experimental data as given in patent US9168247B2, “Beta carboline derivatives useful in the treatment of proliferative disorders” (FACULTES UNIVERSITAIRES NOTRE DAME DE LA PAIX, priority 2010, dated 2015).
Where two headings read alike, the source gives them in different places.

Legend:
U373 glioma cells = test: MTT test, overall cell growth, U373; type: cell-based, human; conditions: 72 hours of incubation
Experimental: (§1) MTT tests were performed in order to rapidly, i.e., within 5 days, measure the effect of the present compounds on the overall cell growth. The test measured the number of metabolically active living cells that were able to transform the yellow product 3-(4,5-dimethylthiazol-2-yl)-2,5-diphenyl tetrazolium bromide (herein referred as MTT) into the blue product formazan dye by mitochondrial reduction. The amount of formazan obtained at the end of the experiment, measured by means of a spectrophotometer, is directly proportional to the number of living cells. Optical density determination thus enabled a quantitative measurement of the effect of the investigated compounds as compared to the control condition (untreated cells) and/or to other reference compounds.
(§2) Five human cancer cell lines set forth in Table 3 were used in the MTT tests. These cancer cell lines cover two histological cancer types including glioma (Hs683, T98G, U373), and oesophageal (OE21, OE33) cancers. The U373 cell line is apoptosis-resistant but autophagy-sensitive.
(§3) To perform the assay, cells were allowed to grow in 96-well micro-wells with a flat bottom with an amount of 100 μl of cell suspension per well with 5,000 to 8,000 cells/well depending on the cell type used. Each cell line was seeded in its appropriate culture medium.
(§4) The detailed experimental procedure was as follows: after a 24-hour period of incubation at 37° C., the culture medium was replaced by 100 μl of fresh medium in which the tested compound was previously dissolved, at the following molar concentrations: 1×10^−8 M, 5×10^−8 M, 1×10^−7 M, 5×10^−7 M, 1×10^−6 M, 5×10^−6 M, 1×10^−5 M, 5×10^−5 M and 1×10^−4 M. Each experiment was performed in sestuplicate (6 times).
(§5) After 72 hours of incubation at 37° C. with (experimental conditions) or without (control condition) the compound to be tested, the medium was replaced by 100 μl MTT dissolved in RPMI (1640 without phenol red) at a concentration of 0.5 or 1 mg/ml. The micro-wells were subsequently incubated during 3 hours and a half at 37° C. and centrifuged at 1300 rpm during 10 minutes. MTT was removed and formazan crystals formed were dissolved in […]. The micro-wells were shaken for 5 minutes and read on a spectrophotometer at wavelengths of 570 nm (maximal formazan absorbance).
(§6) For each experimental condition, the mean optical density was calculated, allowing the determination of the percentage of remaining living cells in comparison to the control.
(§7) The origin of all the cell lines we used, along with their biological characteristics, and the validation procedures of the MTT colorimetric assay as employed here are fully detailed in Van Quaquebeke et al., 2005, J Med Chem 48:849-856; Ingrassia et al., 2009, J Med Chem 52:1100-1114; Mathieu et al., 2009, J Cell Mol Med, Feb. 20, 2009.

T98G glioma cells = test: MTT test, overall cell growth, T98G; type: cell-based, human; conditions: 72 hours of incubation
Experimental: as §1, §2, §3, §4, §5, §6, §7

Hs683 glioma cells = test: MTT test, overall cell growth, Hs683; type: cell-based, human
Experimental: as §1, §2, §3, §4, §5, §6, §7

[1] = system: OE21 oesophageal cancer cells; test: MTT test, overall cell growth, OE21; type: cell-based, human
Experimental: as §1, §2, §3, §4, §5, §6, §7

[2] = system: OE33 oesophageal cancer cells; test: MTT test, overall cell growth, OE33; type: cell-based, human
Experimental: as §1, §2, §3, §4, §5, §6, §7

[3] = system: human cancer cell lines (U373, T98G, Hs683, OE21, OE33); test: MTT test, mean over the cancer cell lines; type: cell-based; conditions: mean over the cancer cell lines, MTT test, read-out: IC50 Mean ± SEM
Experimental: as §1, §2, §3, §4, §5, §6, §7

U373 cells = test: Cellular imaging (videomicroscopy) of cultured U373 cells: antiproliferative class and global growth ratio; type: cell-based, human; design: key to Anti proliferative class / anti-proliferative class-GGR: class I: actually cytostatic for 3 days (<10% of cell death at the 3rd day); class II: cyctostatic but becomes cytotoxic with <10% cell death on the 2nd day, and >20% of cell death on the 3rd day; class III: cytostatic but rapidly becomes cytotoxic with <10% cell death on the 1st day, >20% of cell death on the 2nd day and >50% of cell death on the 3rd day; class IV: cytotoxic (>50% of cell death on the first day); conditions: for global growth ratio (GGR): GG treated cells/GG control cells, 72 h after drug addition, drug at its IC50 (MTT-test determined); for Anti proliferative class: cellular imaging of cultured U373 cells over three consecutive days
From the text: The effects of the di- and tri-substituted beta-carboline derivatives as described herein can also be determined on cell proliferation, migration and morphology by means of a cellular imaging approach (Debeir et al., Cytometry 60:29-40, 2004; Debeir et al., IEEE Trans Med Imaging 24:697-711, 2005) either in, e.g., the human U373-MG glioma cell line, which is apoptosis-resistant but autophagy-sensitive (Lefranc F et al., Neurosurgery 2008) or in, e.g., the human A549 non-small-cell-lung cancer cell line, which is apoptosis-resistant and autophagy-resistant (Mijatovic T et al., Neoplasia 2006, May; 8(5):402-12).
[…] The experiments are conducted in quadruplicates.
The behaviour of the cells, in terms of morphology, growth and death are thus investigated. The effect on the overall growth is measured by counting the number of cells on the first (0 h) and the last image (72 h) of each film. The global growth ratio (GGR) is then deduced by dividing the number of cells on the last image by the number of cells on the first image. The ratio GGRtreated cells/GGRcontrol cells is further calculated thereby providing a value that describes the effect of compounds of the present invention on the overall cell growth.
The methodology is fully described and validated in Debeir et al., 2008, Exp Cell Res 314:2985-2998 and Mathieu et al., 2009, J Cell Mol Med, Feb. 20, 2009.

[4] = Homo sapiens, Hs 683, 72 hours of incubation
[5] = Homo sapiens, OE21, 72 hours of incubation
[6] = Homo sapiens, OE33, 72 hours of incubation

SMILES	IC50 (U373 glioma cells; Homo sapiens, U373 MG) [µM]	IC50 (T98G glioma cells; Homo sapiens, T98G) [µM]	IC50 (Hs683 glioma cells; [4]) [µM]	IC50 [1, 5] [µM]	IC50 [2, 6] [µM]	IC50 ([3]; Homo sapiens) [µM]	global growth ratio (GGR) (U373 cells)	Anti proliferative class (U373 cells)	IC50 (U373 glioma cells) [µM]	IC50 (T98G glioma cells) [µM]	IC50 (Hs683 glioma cells; 72 hours of incubation) [µM]	IC50 ([1]; 72 hours of incubation) [µM]	IC50 ([2]; 72 hours of incubation) [µM]	IC50 [3] [µM]
Cc1c2c(cc[n+]1Cc1ccc(F)cc1)c1ccc(OCc3ccccc3)cc1n2Cc1ccccc1.[Br-] [CV17, 1-methyl-2-(4-fluorobenzyl)-7-benzyloxy-9-benzyl-β-carbolin-2-ium bromide]	0.59 ± 0.06	0.56 ± 0.05	1.6 ± 0.3	0.61 ± 0.04	2.4 ± 0.3	1.2 ± 0.4	0.4	I (class I: actually cytostatic for 3 days (<10% of cell death at the 3rd day))						
Cc1nccc2c1[nH]c1cc(OCCc3ccccc3)ccc12 [JR155]							0.2	IV (class IV: cytotoxic (>50% of cell death on the first day))	9.1 ± 0.6	21 ± 1	21 ± 3	14 ± 1	7.9 ± 0.3	15 ± 3
Cc1nccc2c1[nH]c1cc(OCc3ccccn3)ccc12 [JR169]							0.4	I (class I: actually cytostatic for 3 days (<10% of cell death at the 3rd day))	21.3 ± 0.8	20 ± 2	20 ± 1	16 ± 3	23 ± 3	20 ± 1
Cc1nccc2c3ccc(O)cc3n(Cc3ccccc3)c12 [CV27, 1-methyl-7-hydroxy-9-benzyl-β-carboline]	80 ± 2	81 ± 11	79 ± 4	35 ± 2	35 ± 2	62 ± 11	0.2	II						
Cc1nccc2c1[nH]c1cc(OCc3ccccc3)ccc12 [JR79, 1-methyl-7-benzyloxy-β-carboline]	9.3 ± 0.2	17 ± 3	17 ± 2	21 ± 1	4.1 ± 0.6	14 ± 3	0.2	III						
CCCn1c2cc(OCc3ccccc3)ccc2c2cc[n+](Cc3ccccc3F)c(C)c21.[Br-] [CV35, 1-methyl-2-(2-fluorobenzyl)-7-benzyloxy-9-propyl-β-carbolin-2-ium bromide]	0.39 ± 0.01	1.8 ± 0.3	0.45 ± 0.02	0.42 ± 0.02	0.25 ± 0.02	0.7 ± 0.3	0.4	I (class I: actually cytostatic for 3 days (<10% of cell death at the 3rd day))						
Cc1c2[nH]c3cc(OCc4ccccc4)ccc3c2cc[n+]1Cc1ccccc1 [JR88]							0.2	II	3.9 ± 0.2	5.6 ± 0.2	3.6 ± 0.1	6 ± 0.6	5.5 ± 0.3	5 ± 1
